Test results from PubChem BioAssay (NCI).
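48-hour exposure; five concentrations; linearly interpolated endpoints. At the TGI there is no net growth.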

What was measured:
Assay in all cases: DTP human tumour cell line panel, 48 h
MOLT-4 leukemia = tested on: MOLT-4 leukemia
HOP-92 NSCLC = tested on: HOP-92 NSCLC
T-47D breast = tested on: T-47D breast
OVCAR-4 ovarian = tested on: OVCAR-4 ovarian
NCI-H226 lung = tested on: NCI-H226 lung
SR leukemia = tested on: SR leukemia
MALME-3M melanoma = tested on: MALME-3M melanoma
SW-620 colon = tested on: SW-620 colon
HS 578T breast = tested on: HS 578T breast
786-0 renal = tested on: 786-0 renal
M14 melanoma = tested on: M14 melanoma
SN12C renal = tested on: SN12C renal
NCI-H460 lung = tested on: NCI-H460 lung
HCT-15 colon = tested on: HCT-15 colon
DU-145 prostate = tested on: DU-145 prostate
RXF 393 renal = tested on: RXF 393 renal
OVCAR-3 ovarian = tested on: OVCAR-3 ovarian
SNB-75 CNS = tested on: SNB-75 CNS
EKVX NSCLC = tested on: EKVX NSCLC
SK-MEL-28 melanoma = tested on: SK-MEL-28 melanoma
HCT-116 colon = tested on: HCT-116 colon
PC-3 prostate = tested on: PC-3 prostate
A498 renal = tested on: A498 renal
LOX IMVI melanoma = tested on: LOX IMVI melanoma
NCI-H522 lung = tested on: NCI-H522 lung
UO-31 renal = tested on: UO-31 renal
HOP-62 NSCLC = tested on: HOP-62 NSCLC
SK-MEL-2 melanoma = tested on: SK-MEL-2 melanoma
A549 NSCLC = tested on: A549 NSCLC
BT-549 breast = tested on: BT-549 breast
NCI-H23 lung = tested on: NCI-H23 lung
IGROV1 ovarian = tested on: IGROV1 ovarian
UACC-62 melanoma = tested on: UACC-62 melanoma
SF-295 CNS = tested on: SF-295 CNS
K-562 leukemia = tested on: K-562 leukemia
HCC-2998 colon = tested on: HCC-2998 colon
TK-10 renal = tested on: TK-10 renal
CAKI-1 renal = tested on: CAKI-1 renal
MDA-N = tested on: MDA-N
ACHN renal = tested on: ACHN renal
MDA-MB-231 breast = tested on: MDA-MB-231 breast
SK-MEL-5 melanoma = tested on: SK-MEL-5 melanoma
U251 CNS = tested on: U251 CNS
KM12 colon = tested on: KM12 colon
HT29 colon = tested on: HT29 colon
NCI/ADR-RES ovarian = tested on: NCI/ADR-RES ovarian
SNB-19 CNS = tested on: SNB-19 CNS
MDA-MB-435 = tested on: MDA-MB-435
UACC-257 melanoma = tested on: UACC-257 melanoma
SF-268 CNS = tested on: SF-268 CNS
OVCAR-5 ovarian = tested on: OVCAR-5 ovarian
SK-OV-3 ovarian = tested on: SK-OV-3 ovarian
CCRF-CEM leukemia = tested on: CCRF-CEM leukemia
SF-539 CNS = tested on: SF-539 CNS
HL-60(TB) leukemia = tested on: HL-60(TB) leukemia
RPMI-8226 leukemia = tested on: RPMI-8226 leukemia
OVCAR-8 ovarian = tested on: OVCAR-8 ovarian
COLO 205 colon = tested on: COLO 205 colon

N/C(CC/C(N)=N\O)=N\O was tested, and the TGI (MOLT-4 leukemia) was > 100 µM, the TGI (HOP-92 NSCLC) was > 100 µM and the TGI (T-47D breast) was > 100 µM. The TGI (OVCAR-4 ovarian) was > 100 µM, the TGI (NCI-H226 lung) was > 100 µM and the TGI (SR leukemia) was > 100 µM. For the same molecule, the TGI (MALME-3M melanoma) was > 100 µM, the TGI (SW-620 colon) was > 100 µM and the TGI (HS 578T breast) was > 100 µM. For the same molecule, the TGI (786-0 renal) was > 100 µM, the TGI (M14 melanoma) was > 100 µM and the TGI (SN12C renal) was > 100 µM. The TGI (NCI-H460 lung) was > 100 µM, the TGI (HCT-15 colon) was > 100 µM and the TGI (DU-145 prostate) was > 100 µM. For the same molecule, the TGI (RXF 393 renal) was > 100 µM, the TGI (OVCAR-3 ovarian) was > 100 µM and the TGI (SNB-75 CNS) was > 100 µM. The TGI (EKVX NSCLC) was > 100 µM, the TGI (SK-MEL-28 melanoma) was > 100 µM and the TGI (HCT-116 colon) was > 100 µM. For the same molecule, the TGI (PC-3 prostate) was > 100 µM, the TGI (A498 renal) was > 100 µM and the TGI (LOX IMVI melanoma) was > 100 µM. The TGI (NCI-H522 lung) was > 100 µM, the TGI (UO-31 renal) was > 100 µM and the TGI (HOP-62 NSCLC) was > 100 µM. The TGI (SK-MEL-2 melanoma) was > 100 µM, the TGI (A549 NSCLC) was > 100 µM and the TGI (BT-549 breast) was > 100 µM. The TGI (NCI-H23 lung) was > 100 µM, the TGI (IGROV1 ovarian) was > 100 µM and the TGI (UACC-62 melanoma) was > 100 µM. The TGI (SF-295 CNS) was > 100 µM, the TGI (K-562 leukemia) was > 100 µM and the TGI (HCC-2998 colon) was > 100 µM. The TGI (TK-10 renal) was > 100 µM, the TGI (CAKI-1 renal) was > 100 µM and the TGI (MDA-N) was > 100 µM. For the same molecule, the TGI (ACHN renal) was > 100 µM, the TGI (MDA-MB-231 breast) was > 100 µM and the TGI (SK-MEL-5 melanoma) was > 100 µM. The TGI (U251 CNS) was > 100 µM, the TGI (KM12 colon) was > 100 µM and the TGI (HT29 colon) was > 100 µM. For the same molecule, the TGI (NCI/ADR-RES ovarian) was > 100 µM, the TGI (SNB-19 CNS) was > 100 µM and the TGI (MDA-MB-435) was > 100 µM. For the same molecule, the TGI (UACC-257 melanoma) was > 100 µM, the TGI (SF-268 CNS) was > 100 µM and the TGI (OVCAR-5 ovarian) was > 100 µM.
For Cc1cc(-c2ccc(C(=O)C(Cl)(Cl)Cl)[nH]2)on1, the TGI (MOLT-4 leukemia) was > 100 µM, the TGI (HOP-92 NSCLC) was > 100 µM and the TGI (T-47D breast) was > 100 µM. For the same molecule, the TGI (OVCAR-4 ovarian) was 70.1 µM, the TGI (NCI-H226 lung) was 62.9 µM and the TGI (MALME-3M melanoma) was > 100 µM. For the same molecule, the TGI (SW-620 colon) was > 100 µM, the TGI (786-0 renal) was > 100 µM and the TGI (SK-OV-3 ovarian) was > 100 µM. For the same molecule, the TGI (M14 melanoma) was > 100 µM, the TGI (CCRF-CEM leukemia) was > 100 µM and the TGI (SN12C renal) was 43.2 µM. For the same molecule, the TGI (NCI-H460 lung) was 21.8 µM, the TGI (HCT-15 colon) was > 100 µM and the TGI (DU-145 prostate) was 39.6 µM. For the same molecule, the TGI (RXF 393 renal) was 41.9 µM, the TGI (OVCAR-3 ovarian) was 90.1 µM and the TGI (SNB-75 CNS) was > 100 µM. For the same molecule, the TGI (EKVX NSCLC) was > 100 µM, the TGI (SK-MEL-28 melanoma) was > 100 µM and the TGI (HCT-116 colon) was > 100 µM. The TGI (PC-3 prostate) was > 100 µM, the TGI (A498 renal) was > 100 µM and the TGI (LOX IMVI melanoma) was > 100 µM. For the same molecule, the TGI (NCI-H522 lung) was 97.4 µM, the TGI (UO-31 renal) was 56.7 µM and the TGI (HOP-62 NSCLC) was 24.8 µM. The TGI (SK-MEL-2 melanoma) was 66.7 µM, the TGI (A549 NSCLC) was > 100 µM and the TGI (SF-539 CNS) was 33 µM. For the same molecule, the TGI (BT-549 breast) was 98.1 µM, the TGI (NCI-H23 lung) was 54.3 µM and the TGI (HL-60(TB) leukemia) was 64.6 µM. For the same molecule, the TGI (UACC-62 melanoma) was > 100 µM, the TGI (SF-295 CNS) was > 100 µM and the TGI (K-562 leukemia) was > 100 µM. For the same molecule, the TGI (TK-10 renal) was 69.1 µM, the TGI (CAKI-1 renal) was 36.7 µM and the TGI (MDA-N) was > 100 µM. For the same molecule, the TGI (ACHN renal) was > 100 µM, the TGI (MDA-MB-231 breast) was 60.1 µM and the TGI (SK-MEL-5 melanoma) was > 100 µM. For the same molecule, the TGI (U251 CNS) was 28.7 µM, the TGI (KM12 colon) was 24.6 µM and the TGI (RPMI-8226 leukemia) was > 100 µM. The TGI (HT29 colon) was 76.8 µM, the TGI (NCI/ADR-RES ovarian) was 94.3 µM and the TGI (SNB-19 CNS) was > 100 µM. The TGI (OVCAR-8 ovarian) was > 100 µM, the TGI (MDA-MB-435) was 70.6 µM and the TGI (UACC-257 melanoma) was > 100 µM. For the same molecule, the TGI (COLO 205 colon) was > 100 µM, the TGI (SF-268 CNS) was > 100 µM and the TGI (OVCAR-5 ovarian) was 73 µM.
